Source: US20240252581A1, “COMPOSITIONS AND METHODS FOR TREATING RESPIRATORY DISTRESS” (S.I.S. SHULOV INNOVATIVE SCIENCE LTD., priority 2021, published 2024)
“And” between values parts separate entries of the source, which are not always exact repeats. Equal values may be shown once. “Also recorded” adds a separate entry of the source. Square brackets hold non-standard residues; d marks the D form. Peptide text beside a SMILES is read from it. * marks the point of attachment. pGlu = O=C1CC[C@@H](C(=O)O)N1; Octanoyl = CCCCCCCC(=O)*

How the values were obtained:
[1] = test system: B cells, T cells, eosinophils, neutrophils, macrophages/dendritic cells in BALF; experiment: LPS-induced acute lung injury / ARDS mouse model: BALF differential cell count by FACS; assay type: in vivo, BALB/c mice; design: key to Macrophages / B cells / T cells / Eosinophils / Neutrophils: (+) indicates activation; (−) indicates inhibition; conditions: for B cells (%) / Eosinophils (%) / Macrophages & dendritic cells (%) / Neutrophils (%) / T cells (%) / Eosinophils / Macrophages / B cells / Neutrophils / T cells: BALF
Procedure: In order to test the efficacy of ZEP3 sodium on lung inflammation, the lipopolysaccharide (LPS)-induced acute lung injury model was used. In particular, LPS was administered intratracheally at doses of 10 or 40 mg/kg body weight (BW) corresponding to 0.2 or 0.8 mg/mouse, respectively.
ZEP3 sodium was administered by inhalation (INH) at doses of 25 or 250 mg/kg BW (0.5 or 5 mg/mouse, respectively), or intratracheally (IT) at doses of 5 or 20 mg/kg BW (0.1 or 0.4 mg/mouse, respectively) 6 hours after LPS administration and its effect was measured 72 hours following administration in the branchial alveolar fluid (BALF) using FACS instrumentation. […]

[2] = determined daily during the study
Procedure: The effect of ZEP3Na administered intratracheally in a mice model of acute respiratory distress syndrome was evaluated. BALB/c mice were anaesthetized and orally intubated with a sterile plastic catheter and challenged with intratracheal instillation of 0.2 mg or 0.8 mg of LPS dissolved in 50 μL of PBS. Naïve mice (without LPS instillation) were injected with the same volume of saline to serve as controls. Six hours following LPS instillation, mice were administered intratracheally with ZEP3Na at two doses, namely 0.1 and 0.4 mg. The study was terminated 72 hours after LPS challenge to collect tissues for analysis.
Animal body weights were determined daily during the study.

[3] = Group 2: ZEP3Na 0.1 mg IT, no LPS, group mean
[4] = Group 2: ZEP3Na 0.1 mg IT, no LPS, individual mice
[5] = Group 3: ZEP3Na 0.4 mg IT, no LPS, group mean
[6] = Group 3: ZEP3Na 0.4 mg IT, no LPS, individual mice
[7] = Group 4: LPS 0.8 mg + ZEP3Na 0.1 mg IT, group mean
[8] = Group 4: LPS 0.8 mg + ZEP3Na 0.1 mg IT, individual mice
[9] = Group 5: LPS 0.8 mg + ZEP3Na 0.4 mg IT, group mean
[10] = Group 5: LPS 0.8 mg + ZEP3Na 0.4 mg IT, individual mice
[11] = Group 8: LPS 0.2 mg + ZEP3Na 0.1 mg IT, group mean
[12] = Group 8: LPS 0.2 mg + ZEP3Na 0.1 mg IT, individual mice
[13] = Group 9: LPS 0.2 mg + ZEP3Na 0.4 mg IT, group mean
[14] = Group 9: LPS 0.2 mg + ZEP3Na 0.4 mg IT, individual mice
[15] = LPS 0.2 mg + ZEP3Na (IT) 0.1 mg
[16] = LPS 0.2 mg + ZEP3Na (IT) 0.4 mg
[17] = LPS 0.8 mg + ZEP3Na (INH) 0.5 mg
[18] = administered by inhalation following LPS instillation
[19] = administered intratracheally following LPS instillation

In the case of `CCCCCCCC(=O)NCCCC[C@H](NC(=O)[C@H](Cc1c[nH]c2ccccc12)NC(=O)[C@H](CC(N)=O)NC(=O)[C@@H]1CCC(=O)N1)C(=O)O` [ZEP3Na, pGlu-Asn-Trp-Lys(Octanoyl)-ONa] ([pGlu]NWK(Octanoyl)-OH), the bronchoalveolar eosinophils percentage ([1]; 0.2 mg LPS, ZEP3Na 0.1 and 0.4 mg, compared to untreated mice that received 0.2 mg LPS) is reported as “significant decrease; also recorded: significantly inhibited”, the “B cells (%)” value [1, 3] is reported as 0.163% and the “Eosinophils (%)” value [1, 3] is reported as 0.412%. The “Macrophages & dendritic cells (%)” value [1, 3] was 66.715%, the “Neutrophils (%)” value [1, 3] was 6.816% and the “T cells (%)” value [1, 3] was 3.078%. For the same compound, the “B cells (%)” value [1, 4] was 0.320% and 0.208% and 0.091% and 0.218% and 0.150% and 0.089% and 0.103% and 0.162% and 0.147% and 0.138%, the “Eosinophils (%)” value [1, 4] was 0.192% and 0.556% and 0.185% and 0.196% and 0.692% and 0.058% and 0.261% and 0.828% and 0.606% and 0.546% and the “Macrophages & dendritic cells (%)” value [1, 4] was 69.267% and 65.626% and 66.568% and 65.527% and 65.957% and 70.380% and 68.287% and 64.068% and 65.131% and 66.345%. For the same compound, the “Neutrophils (%)” value [1, 4] was 8.302% and 7.056% and 4.882% and 7.770% and 5.279% and 3.207% and 3.871% and 12.158% and 8.592% and 7.044%, the “T cells (%)” value [1, 4] was 3.447% and 3.524% and 4.627% and 2.747% and 2.636% and 1.788% and 2.856% and 2.681% and 3.118% and 3.354% and the “B cells (%)” value [1, 5] was 0.176%. For the same compound, the “Eosinophils (%)” value [1, 5] was 0.277%, the “Macrophages & dendritic cells (%)” value [1, 5] was 72.219% and the “Neutrophils (%)” value [1, 5] was 4.248%. The “T cells (%)” value [1, 5] was 1.983%, the “B cells (%)” value [1, 6] was 0.310% and 0.225% and 0.162% and 0.154% and 0.106% and 0.100% and 0.160% and 0.223% and 0.144% and the “Eosinophils (%)” value [1, 6] was 0.151% and 0.400% and 0.136% and 0.176% and 0.138% and 0.390% and 0.192% and 0.540% and 0.366%. For the same compound, the “Macrophages & dendritic cells (%)” value [1, 6] was 72.760% and 67.646% and 73.862% and 72.372% and 77.634% and 73.286% and 72.368% and 67.355% and 72.688%, the “Neutrophils (%)” value [1, 6] was 3.325% and 7.965% and 2.600% and 3.496% and 2.405% and 3.740% and 3.111% and 7.438% and 4.152% and the “T cells (%)” value [1, 6] was 2.519% and 3.322% and 1.247% and 1.675% and 1.513% and 1.348% and 1.817% and 2.755% and 1.654%. For the same compound, the “B cells (%)” value [1, 7] was 0.164%, the “Eosinophils (%)” value [1, 7] was 0.833% and the “Macrophages & dendritic cells (%)” value [1, 7] was 20.180%. For the same compound, the “Neutrophils (%)” value [1, 7] was 59.048%, the “T cells (%)” value [1, 7] was 2.194% and the “B cells (%)” value [1, 8] was 0.118% and 0.102% and 0.048% and 0.030% and 0.045% and 0.489% and 0.052% and 0.572% and 0.017%. For the same compound, the “Eosinophils (%)” value [1, 8] was 0.170% and 0.064% and 1.024% and 0.755% and 0.646% and 3.005% and 0.568% and 0.840% and 0.425%, the “Macrophages & dendritic cells (%)” value [1, 8] was 71.986% and 72.475% and 1.316% and 0.956% and 1.424% and 16.916% and 1.107% and 14.732% and 0.713% and the “Neutrophils (%)” value [1, 8] was 6.007% and 2.454% and 77.259% and 86.115% and 82.630% and 57.391% and 82.523% and 54.903% and 82.147%. For the same compound, the “T cells (%)” value [1, 8] was 0.991% and 1.527% and 0.804% and 0.573% and 0.865% and 5.340% and 0.937% and 8.033% and 0.675%, the “B cells (%)” value [1, 9] was 0.054% and the “Eosinophils (%)” value [1, 9] was 0.475%. The “Macrophages & dendritic cells (%)” value [1, 9] was 12.756%, the “Neutrophils (%)” value [1, 9] was 67.517% and the “T cells (%)” value [1, 9] was 0.895%. For the same compound, the “B cells (%)” value [1, 10] was 0.014% and 0.011% and 0.028% and 0.024% and 0.167% and 0.138% and 0.026% and 0.022%, the “Eosinophils (%)” value [1, 10] was 0.303% and 0.448% and 0.323% and 0.298% and 1.427% and 0.195% and 0.530% and 0.280% and the “Macrophages & dendritic cells (%)” value [1, 10] was 0.470% and 0.297% and 0.271% and 0.442% and 30.597% and 68.407% and 0.798% and 0.764%. For the same compound, the “Neutrophils (%)” value [1, 10] was 77.586% and 88.700% and 84.629% and 80.400% and 39.818% and 3.154% and 84.929% and 80.922%, the “T cells (%)” value [1, 10] was 0.383% and 0.495% and 0.512% and 0.577% and 1.800% and 2.098% and 0.609% and 0.685% and the “B cells (%)” value [1, 11] was 0.097%. The “Eosinophils (%)” value [1, 11] was 0.210%, the “Macrophages & dendritic cells (%)” value [1, 11] was 2.327% and the “Neutrophils (%)” value [1, 11] was 79.428%. For the same compound, the “T cells (%)” value [1, 11] was 1.662%, the “B cells (%)” value [1, 12] was 0.040% and 0.064% and 0.259% and 0.230% and 0.080% and 0.054% and 0.069% and 0.053% and 0.045% and 0.075% and the “Eosinophils (%)” value [1, 12] was 0.247% and 0.204% and 0.223% and 0.251% and 0.143% and 0.176% and 0.180% and 0.265% and 0.225% and 0.192%. For the same compound, the “Macrophages & dendritic cells (%)” value [1, 12] was 2.218% and 1.674% and 5.674% and 2.257% and 0.618% and 1.800% and 1.175% and 5.084% and 1.252% and 1.516%, the “Neutrophils (%)” value [1, 12] was 84.112% and 84.283% and 69.683% and 74.854% and 81.436% and 79.270% and 71.074% and 80.725% and 85.962% and 82.883% and the “T cells (%)” value [1, 12] was 0.940% and 0.742% and 5.066% and 3.187% and 1.024% and 1.045% and 1.327% and 0.892% and 1.131% and 1.271%. The “B cells (%)” value [1, 13] was 0.092%, the “Eosinophils (%)” value [1, 13] was 0.270% and the “Macrophages & dendritic cells (%)” value [1, 13] was 24.471%. The “Neutrophils (%)” value [1, 13] was 55.279%, the “T cells (%)” value [1, 13] was 1.175% and the “B cells (%)” value [1, 14] was 0.045% and 0.054% and 0.029% and 0.019% and 0.100% and 0.153% and 0.286% and 0.103% and 0.037%. For the same compound, the “Eosinophils (%)” value [1, 14] was 0.243% and 0.159% and 0.151% and 0.192% and 0.238% and 0.345% and 0.577% and 0.237% and 0.288%, the “Macrophages & dendritic cells (%)” value [1, 14] was 4.399% and 1.327% and 0.529% and 0.437% and 1.661% and 60.592% and 75.765% and 73.903% and 1.626% and the “Neutrophils (%)” value [1, 14] was 77.353% and 85.551% and 87.483% and 77.212% and 72.881% and 9.005% and 3.108% and 3.716% and 81.207%. For the same compound, the “T cells (%)” value [1, 14] was 1.035% and 0.833% and 0.582% and 0.685% and 1.665% and 2.779% and 0.977% and 1.174% and 0.843%, the Eosinophils [1, 15] was “−” and the Macrophages [1, 15] was “+”. The Eosinophils [1, 16] was “−”, the Macrophages [1, 16] was “+” and the B cells [1, 17] was “+”. For the same compound, the Eosinophils [1, 17] was “−”, the Macrophages [1, 17] was “+” and the Neutrophils [1, 17] was “−”. For the same compound, the T cells [1, 17] was “−”, the B cells ([1]; LPS 0.8 mg + ZEP3Na (INH) 5 mg) was “+” and the Eosinophils ([1]; LPS 0.8 mg + ZEP3Na (INH) 5 mg) was “−”. For the same compound, the Macrophages ([1]; LPS 0.8 mg + ZEP3Na (INH) 5 mg) was “+”, the Neutrophils ([1]; LPS 0.8 mg + ZEP3Na (INH) 5 mg) was “−” and the T cells ([1]; LPS 0.8 mg + ZEP3Na (INH) 5 mg) was “−”. For the same compound, the “levels of T cells, eosinophils, neutrophils” value [1, 18] was “significantly inhibited the expression and reduced the levels”, the “levels of macrophages and B cells” value [1, 18] was “increased the levels” and the levels of eosinophils [1, 19] was “significantly inhibited the expression and reduced the levels”. For the same compound, the levels of macrophages [1, 19] was “increased the levels” and the body weight [2] was “No major changes”.
